Read-outs that look alike come from different tables or passages of the source.
How the values were obtained:
TYK2 JH2 = target: T1, TYK2 JH2 (Homo sapiens, UniProt P29597); assay: TYK2 JH2 binding assay (KINOMEscan KdELECT competitive binding); conditions: TYK2 JH2 domain
T1 construct: purchased DiscoverX (KINOMEscan KdELECT service); host or cells: E. coli BL21-derived (T7 phage display) or HEK-293
Procedure, shortened: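 Test compounds were titrated in 11 three-fold steps against JH2 fragment captured on ligand-loaded magnetic beads, with 1 h incubation at room temperature and DMSO at 0.9%. Eluted kinase was quantified by qPCR, and Kd was fitted from the dose series.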

[1] = test system: JAK1/TYK2 pSTAT5 (Tyr694/699) in THP-1 cell line; assay: IFNa-stimulated JAK1/TYK2 pSTAT5 (Tyr694/699) inhibition cellular assay, AlphaLISA; format: cell-based; conditions: Homo sapiens, THP-1 cells, AlphaLISA (Assay B)
Procedure, shortened: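 Compound dilutions were dispensed first, and HBSS-suspended THP-1 cells were added on top (final top concentration 10000 nM, 6-fold series). After 1 h at 37 °C, IFNa (100 ng/mL as added) was applied for 30 min. Cells were then lysed and pSTAT5 was quantified by AlphaLISA.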

[2] = KINOMEscan KdELECT (Assay A), read-out: Biochemical TYK2_DiscoverX_JH2_BND_Kd
[3] = IFNa-stimulated pSTAT5 (Tyr694/699), read-out: Cellular_THP1_IFNa-pSTATS_TYK2
[4] = KINOMEscan KdELECT (Assay A), read-out: Biochemical TYK2_JH2_Kd
[5] = IFNa-stimulated, read-out: Cellular THP1_IFNa-pSTATS_IC50
[6] = IFNa-stimulated, read-out: Cellular_THP1_IFNa-pSTATS_TYK2
[7] = DiscoverX KINOMEscan KdELECT (Assay A), read-out: Biochemical TYK2_DiscoverX_JH2_BND_Kd

T1 sequence (P29597 589-875 limits assumed): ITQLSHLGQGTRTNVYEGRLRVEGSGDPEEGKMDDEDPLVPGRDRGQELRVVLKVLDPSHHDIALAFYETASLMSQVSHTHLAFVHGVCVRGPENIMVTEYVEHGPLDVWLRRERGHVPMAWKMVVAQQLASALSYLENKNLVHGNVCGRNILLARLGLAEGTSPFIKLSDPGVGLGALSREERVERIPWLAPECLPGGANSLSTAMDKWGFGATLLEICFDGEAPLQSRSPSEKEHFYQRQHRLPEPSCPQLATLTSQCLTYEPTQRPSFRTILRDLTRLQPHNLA

| Kd (TYK2 JH2; [2]) [nM] | IC50 [1, 6] [nM] | Kd (TYK2 JH2; [7]) [nM] | SMILES | also measured |
| --- | --- | --- | --- | --- |
| ≤ 100 |  |  | CNc1ncc(-c2nc3ccc(N4CCO[C@H]([C@H](C)O)C4)cn3n2)c2cc(NC(=O)C3CC3)ncc12 (single isomer, unassigned) [Example 1047] | IC50 [1, 3]: ≤ 500 nM |
|  |  |  | CNc1ncc(-c2ccccc2COC)c2cc(NC(=O)C3CC3)ncc12 [Example 119, N-(5-(2-(methoxymethyl)phenyl)-8-(methylamino)-2,7-naphthyridin-3-yl)cyclopropanecarboxamide] | Kd (TYK2 JH2; [4]): ≤ 100 nM; IC50 [1, 5]: > 500 nM |
| ≤ 100 | ≤ 500 |  | CNc1ncc(-c2nc3cc(N4CCO[C@@H](C(F)(F)F)C4)ccc3o2)c2cc(NC(=O)C3CC3)ncc12 (single isomer, unassigned) [Example 922] |  |
|  | ≤ 500 | ≤ 100 | CNc1ncc(-c2nc3cccc(Cl)c3o2)c2cc(NC(=O)C3CC3)ncc12 [Example 211, N-(5-(7-chlorobenzo[d]oxazol-2-yl)-8-(methylamino)-2,7-naphthyridin-3-yl)cyclopropanecarboxamide] |  |
| ≤ 100 | ≤ 500 |  | CNc1ncc(C#Cc2ccc(Oc3cn(C)cn3)cc2)c2cc(NC(=O)C3CC3)ncc12 [Example 986, N-[8-(methylamino)-5-[2-[4-(1-methylimidazol-4-yl)oxyphenyl]ethynyl]-2,7-naphthyridin-3-yl]cyclopropanecarobxmaide] |  |
| ≤ 100 |  |  | [2H]C([2H])(C)Nc1ncc(-c2nc3cc(OC)ccc3o2)c2cc(NC(=O)C3CC3)ncc12 [Example 1102, N-(8-((ethyl-1,l-rig)amino)-5-(5-methoxybenzo[d]oxazol-2-yl)-2,7-naphthyridin-3-yl)cyclopropanecarboxamide] | IC50 [1, 3]: ≤ 500 nM |
|  | ≤ 500 | ≤ 100 | CNc1ncc(-c2nc3cc(OC)ccc3o2)c2cc(Nc3cc(C)nc(C)n3)ncc12 [Example 377, N^6-(2,6-dimethylpyrimidin-4-yl)-4-(5-methoxybenzo[d]oxazol-2-yl)-N^1-methyl-2,7-naphthyridine-1,6-diamine] |  |
|  |  |  | CNc1ncc(Cc2ccccc2)c2cc(NC(=O)C3CC3)ncc12 [Example 43, N-(5-benzyl-8-(methylamino)-2,7-naphthyridin-3-yl)cyclopropanecarboxamide] | Kd (TYK2 JH2; [4]): ≤ 100 nM; IC50 [1, 5]: > 500 nM |
| ≤ 100 | ≤ 500 |  | CNc1ncc(C#Cc2cc3c(F)cccn3n2)c2cc(NC(=O)C3CC3)ncc12 [Example 721, N-(5-((4-fluoropyrazolo[1,5-a]pyridin-2-yl)ethynyl)-8-(methylamino)-2,7-naphthyridin-3-yl)cyclopropanecarboxamide] |  |
|  | ≤ 500 | ≤ 100 | CNc1ncc(-c2nc3ccc(N4C[C@@H](C)O[C@@H](C)C4)cn3n2)c2cc(NC(=O)[C@H]3C[C@H]3C)ncc12 [Example 555, (1S,2R)-N-(5-(6-((2R,6S)-2,6-dimethylmorpholino)-[1,2,4]triazolo[1,5-a]pyridin-2-yl)-8-(methylamino)-2,7-naphthyridin-3-yl)-2-methylcyclopropane-1-carboxamide] |  |
|  |  |  | O=C(Nc1cc2c(-c3ccccc3)cnc(NCCO)c2cn1)C1CC1 [Example 160, N-(8-((2-hydroxyethyl)amino)-5-phenyl-2,7-naphthyridin-3-yl)cyclopropanecarboxamide] | Kd (TYK2 JH2; [4]): ≤ 100 nM; IC50 [1, 5]: > 500 nM |
|  | ≤ 500 | ≤ 100 | CNc1ncc(-c2nc3cc(C4CCNCC4)ccc3o2)c2cc(NC(=O)C3CC3)ncc12 [Example 359, N-(8-(methylamino)-5-(5-(piperidin-4-yl)benzo[d]oxazol-2-yl)-2,7-naphthyridin-3-yl)cyclopropanecarboxamide 2,2,2-trifluoroacetate] |  |
| ≤ 100 | ≤ 500 |  | [2H]C([2H])([2H])Nc1ncc(C#Cc2ccc(OC)cn2)c2cc(NC(=O)[C@H]3C[C@H]3C)ncc12 [Example 779, (1S,2R)—N-(5-((5-methoxypyridin-2-yl)ethynyl)-8-((methyl-d3)amino)-2,7-naphthyridin-3-yl)-2-methylcyclopropane-1-carboxamide] |  |
|  |  |  | CNc1ncc(-c2ccc(-c3ccccn3)cc2)c2cc(NC(=O)C3CC3)ncc12 [Example 171, N-(8-(methylamino)-5-(4-(pyridin-2-yl)phenyl)-2,7-naphthyridin-3-yl)cyclopropanecarboxamide] | Kd (TYK2 JH2; [4]): ≤ 100 nM; IC50 [1, 5]: ≤ 500 nM |
| ≤ 100 | ≤ 500 |  | CNc1ncc(C#Cc2nc3ccc(OC)cn3n2)c2cc(NC(=O)C3CC3)ncc12 [Example 676, N-(5-((6-methoxy-[1,2,4]triazolo[1,5-a]pyridin-2-yl)ethynyl)-8-(methylamino)-2,7-naphthyridin-3-yl)cyclopropanecarboxamide] |  |
|  | ≤ 500 | ≤ 100 | CNc1ncc(-c2nc3cc(NC(C)=O)ccc3o2)c2cc(NC(=O)C3CC3)ncc12 [Example 295, N-(5-(5-acetamidobenzo[d]oxazol-2-yl)-8-(methylamino)-2,7-naphthyridin-3-yl)cyclopropanecarboxamide] |  |
|  | ≤ 500 | ≤ 100 | CCNc1ncc(-c2nc3cc(N4CCO[C@@H](C)C4)ccc3o2)c2cc(NC(=O)C3CC3)ncc12 [Example 366, (S)—N-(8-(ethylamino)-5-(5-(2-methylmorpholino)benzo[d]oxazol-2-yl)-2,7-naphthyridin-3-yl)cyclopropanecarboxamide] |  |
|  | ≤ 500 | ≤ 100 | CNc1ncc(-c2nc3cc(OC4CN(C5CCOC5)C4)ccc3o2)c2cc(NC(=O)C3CC3)ncc12 (stereo not shown) [Example 251, N-(8-(methylamino)-5-(5-((1-(tetrahydrofuran-3-yl)azetidin-3-yl)oxy)benzo[d]oxazol-2-yl)-2,7-naphthyridin-3-yl)cyclopropanecarboxamide] |  |
|  | ≤ 500 | ≤ 100 | CNc1ncc(-c2nc3cc(N4CCO[C@H](C(C)(F)F)C4)ccc3o2)c2cc(NC(=O)C3CC3)ncc12 (single isomer, unassigned) [Example 331] |  |
| ≤ 100 | ≤ 500 |  | CNc1ncc(/C=C/c2ccc(OCCOC)cc2)c2cc(NC(=O)C3CC3)ncc12 [Example 782, (E)-N-(5-(4-(2-methoxyethoxy)styryl)-8-(methylamino)-2,7-naphthyridin-3-yl)cyclopropanecarboxamide] |  |
| ≤ 100 | ≤ 500 |  | CNc1ncc(C#Cc2ccn(C)n2)c2cc(NC(=O)C3CC3)ncc12 [Example 596, N-(5-((1-methyl-1H-pyrazol-3-yl)ethynyl)-8-(methylamino)-2,7-naphthyridin-3-yl)cyclopropanecarboxamide] |  |
| ≤ 100 |  |  | CN=S(C)(=O)c1ccc(C#Cc2cnc(NC)c3cnc(NC(=O)C4CC4)cc23)cc1 (stereo not shown) [Example 1002, N-(5-((4-(N,S-dimethylsulfonimidoyl)phenyl)ethynyl)-8-(methylamino)-2,7-naphthyridin-3-yl)cyclopropanecarobxamide] | IC50 [1, 3]: ≤ 500 nM |
|  | ≤ 500 | ≤ 100 | CNc1ncc(-c2nc3ccc(N4C[C@@H](C)O[C@@H](C)C4)cn3n2)c2cc(NC(=O)C3CC3)ncc12 [Example 479, N-(5-(6-((2R,6S)-2,6-dimethylmorpholino)-[1,2,4]triazolo[1,5-a]pyridin-2-yl)-8-(methylamino)-2,7-naphthyridin-3-yl)cyclopropanecarboxamide] |  |
| ≤ 100 |  |  | CNc1ncc(C#Cc2ccc(OC)cn2)c2cc(NC(=O)N3CCOCC3)ncc12 [Example 1082, N-[5-[2-(5-methoxy-2-pyridyl)ethynyl]-8-(methylamino)-2,7-naphthyridin-3-yl]morpholine-4-carboxamide] | IC50 [1, 3]: ≤ 500 nM |
| ≤ 100 | ≤ 500 |  | CNc1ncc(C#Cc2ccc(OC)cn2)c2cc(NC(=O)[C@H]3C[C@H]3C(F)(F)F)ncc12 (single isomer, unassigned) [Example 747] |  |
| ≤ 100 |  |  | CNc1ncc(C#Cc2ccc(OC)cn2)c2cc(NC(=O)N3CC(OC)C3)ncc12 [Example 1083, 3-methoxy-N-[5-[2-(5-methoxy-2-pyridyl)ethynyl]-8-(methylamino)-2,7-naphthyridin-3-yl]azetidine-1-carboxamide] | IC50 [1, 3]: > 500 nM |
|  | ≤ 500 | ≤ 100 | CNc1ncc(-c2nc3cc(N(C)C(C)=O)ccc3o2)c2cc(NC(=O)C3CC3)ncc12 [Example 297, N-(5-(5-(N-methylacetamido)benzo[d]oxazol-2-yl)-8-(methylamino)-2,7-naphthyridin-3-y1)cyclopropanecarboxamide] |  |
|  | > 500 | ≤ 100 | CNc1ncc(-c2nc3cc(-n4c(=O)ccn4C)ccc3o2)c2cc(NC(=O)C3CC3)ncc12 [Example 446, N-(5-(5-(2-methyl-5-oxo-2,5-dihydro-1H-pyrazol-1-yl)benzo[d]oxazol-2-yl)-8-(methylamino)-2,7-naphthyridin-3-yl)cyclopropanecarboxamide] |  |
| ≤ 100 | > 500 |  | CNc1ncc(C#CC2CCOCC2)c2cc(NC(=O)C3CC3)ncc12 [Example 592, N-(8-(methylamino)-5-((tetrahydro-2H-pyran-4-yl)ethynyl)-2,7-naphthyridin-3-yl)cyclopropanecarboxamide] |  |

Source: US20240025906A1 (NEURON23, INC., priority 2022, published 2024)
